Experimental data taken from patent US20100184815A1 (priority 2008, published 2010).
Like-named read-outs stand apart in the source and are kept apart here.

Experiments:
Gal-4 hPPARβ/δ = target: T1, Gal-4 hPPARβ/δ (Homo sapiens, UniProt Q03181); assay: Gal4-hPPARδ transient transfection reporter assay in Cos cells; type: cell-based; conditions: luciferase reporter, 24 hours with compound, scale 1-5, read-out: Gal-4 hPPAR β/δ EC50 (scaled number)
T1 construct: Plasmids pGal4-hPPARα, pGal4-hPPARγ, pGal4-hPPARδ and pG5-TK-pGL3 were constructed as previously described by Staels, Bart, et al., Nature 1998 Jun; 25
T1 sequence (Q03181 171-441 limits assumed): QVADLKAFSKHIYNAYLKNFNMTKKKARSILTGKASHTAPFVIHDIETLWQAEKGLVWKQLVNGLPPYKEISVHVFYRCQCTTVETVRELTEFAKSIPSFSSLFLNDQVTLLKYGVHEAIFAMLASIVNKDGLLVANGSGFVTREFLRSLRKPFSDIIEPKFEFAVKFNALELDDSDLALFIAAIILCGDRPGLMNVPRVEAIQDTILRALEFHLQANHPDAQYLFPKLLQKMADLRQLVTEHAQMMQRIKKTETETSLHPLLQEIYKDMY
Summary of the method: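 Cos cells transiently co-transfected with Gal4-hPPAR expression plasmid, pG5-TK-pGL3 luciferase reporter and β-galactosidase control, then treated 24 h with increasing compound concentrations in DMEM containing 0.2% FCS. Luciferase normalised to β-galactosidase; EC50 from curve fit, at least three experiments.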

pig liver esterase = assay: Metabolism studies using pig liver esterase; type: in vitro ADME; conditions: 37° C.
[1] = Metabolism studies using human liver microsomal preparations; type: in vitro ADME; conditions: for HLMs t1/2 (min) / half-life: pooled human liver microsomes, with NADPH (CYP system active), 37° C.; for HLMs Predominant Enzyme: comparison of half life with and without NADPH: Esterase, CYP or Mixed; for half-life: pH 7.4, read-out: HLMs t1/2
Summary of the method: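 Pooled human liver microsomes in 50 mM Tris pH 7.4 with 5 mM MgCl2 at 37° C, with or without NADPH-generating system; buffer-only control for stability. Parent loss and acid metabolite formation followed by LC-MS/MS over 0–90 min. Half-life reported with NADPH; comparison with (−)NADPH assigns predominant enzyme.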

[2] = pig liver esterase in human plasma protein solution, read-out: Pig Liver Esterase (t1/2 min.) (+) Plasma
[3] = pig liver esterase in phosphate buffer pH 7.4, no plasma, read-out: Pig Liver Esterase (t1/2 min.) (−) Plasma
[4] = pig liver esterase in human plasma protein solution

EC50 (Gal-4 hPPARβ/δ) [nM]	half-life at 4.9 µM (pig liver esterase; [2]) [min]	half-life at 4.9 µM (pig liver esterase; [3]) [min]	HLMs t1/2 (min) [1]	Pig Liver Esterase (t1/2 min.) (+) Plasma (pig liver esterase; [4])	HLMs Predominant Enzyme [1]	half-life [1] [min]	Compound
> 1000	121	21	Stable	–	–	–	CC(C)(Sc1ccc(C(=O)OCc2cn(Cc3ccc(C(F)(F)F)cc3)nn2)cc1)C(=O)O [Compound 67, 2-methyl-2-(4-(((1-(4-(trifluoromethyl)benzyl)-1H-1,2,3-triazol-4-yl)methoxy)carbonyl)phenylthio)propanoic acid]
> 1000	126	14	–	–	Esterase	60	CC(C)(Sc1ccc(C(=O)OCc2cn(Cc3ccc(C(C)(C)C)cc3)nn2)cc1)C(=O)O [Compound 69, 2-(4-(((1-(4-tert-butylbenzyl)-1H-1,2,3-triazol-4-yl)methoxy)carbonyl)phenylthio)-2-methylpropanoic acid]
> 1000	> 120	19	Stable	–	–	–	Cc1ccc(Cn2cc(COC(=O)c3ccc(SC(C)(C)C(=O)O)cc3)cn2)cc1 [Compound 3, 2-methyl-2-(4-(((1-(4-methylbenzyl)-1H-pyrazol-4-yl)methoxy)carbonyl)phenylthio)propanoic acid]

Continued, compound first:

Compound	EC50 (Gal-4 hPPARβ/δ) [nM]	half-life at 4.9 µM (pig liver esterase; [2]) [min]	half-life at 4.9 µM (pig liver esterase; [3]) [min]	HLMs t1/2 (min) [1]	Pig Liver Esterase (t1/2 min.) (+) Plasma (pig liver esterase; [4])	HLMs Predominant Enzyme [1]	half-life [1] [min]
CCCCCCCCn1c(COC(=O)c2ccc(OC(C)(C)C(=O)O)c(OC)c2)nn(Cc2ccc(C)cc2)c1=O [Compound 186, 2-(2-methoxy-4-(((1-(4-methylbenzyl)-4-octyl-5-oxo-4,5-dihydro-1H-1,2,4-triazol-3-yl)methoxy)carbonyl)phenoxy)-2-methylpropanoic acid]	> 1000	–	45	–	Stable	CYP	42
CCCn1c(COC(=O)c2ccc(SC(C)(C)C(=O)O)cc2)nn(Cc2ccc(C(C)(C)C)cc2)c1=O [Compound 159, 2-(4-(((1-(4-tert-butylbenzyl)-5-oxo-4-propyl-4,5-dihydro-1H-1,2,4-triazol-3-yl)methoxy)carbonyl)phenylthio)-2-methylpropanoic acid]	> 1000	97	3	Stable	–	–	–
CCCCCCCn1c(COC(=O)c2ccc(SC(C)(C)C(=O)O)cc2)nn(Cc2ccc(C)cc2)c1=O [Compound 191, 2-(4-(((4-heptyl-1-(4-methylbenzyl)-5-oxo-4,5-dihydro-1H-1,2,4-triazol-3-yl)methoxy)carbonyl)phenylthio)-2-methylpropanoic acid]	> 1000	–	< 5	–	Stable	Esterase	15
CCCCCCn1c(COC(=O)c2ccc(OC(C)(C)C(=O)O)cc2)nn(Cc2ccc(C(C)(C)C)cc2)c1=O [Compound 188, 2-(4-(((1-(4-tert-butylbenzyl)-4-hexyl-5-oxo-4,5-dihydro-1H-1,2,4-triazol-3-yl)methoxy)carbonyl)phenoxy)-2-methylpropanoic acid]	> 1000	–	9	–	Stable	CYP	> 90
